Common to all, as to assay: DTP human tumour cell line panel, 48 h
Assay [1] concerns HCC-2998 colon.
For assay [2], the system named is HCT-116 colon.
The subject of assay [3] is HOP-62 NSCLC.
Assay [4] has as its system HOP-92 NSCLC.
Assay [5] deals with K-562 leukemia.
For assay [6], the system named is KM12 colon.
The test system of assay [7] is M14 melanoma.
Assay [8] concerns NCI-H226 lung.
Assay [9] has as its system SNB-19 CNS.
Assay [10] concerns T-47D breast.

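Growth conditions: 96-well plates. Treatment: test compound, 48 hours, 5 concentrations. Analysis: linear interpolation between bracketing concentrations; unreached endpoints set to highest concentration. Here, GI50 denotes the concentration required for 50% inhibition of growth. At the TGI there is no net growth.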

In general, GI50 refers to the concentration giving 50% growth inhibition. In general, TGI refers to the concentration giving total growth inhibition. Lower therefore signals greater sensitivity of the cells.

On to `C=C1C(=O)O[C@H]2[C@H]1CC/C(COC(=O)C(=O)c1cn(C)c3ccc(Cl)cc13)=C\CC[C@@]1(C)O[C@@H]21`, for which the GI50 in assay [1] is 1.86 µM; in [2], 1.24 µM; in [3], 1.33 µM; in assay [4], 1.72 µM; in assay [5], 1.65 µM; in [6], 2.48 µM. Also, the GI50 in assay [7] was 1.11 µM; in assay [8], 1.46 µM; in assay [9], 2.16 µM; in assay [10], 1.46 µM. The TGI was 3.52 µM in assay [1]; 2.69 µM in assay [2]; 3.02 µM in assay [3]; 3.62 µM in [4]; above 100 µM in assay [5]; 7.46 µM in assay [6]. Also, the TGI in assay [7] came to 2.74 µM; in [8], 3.08 µM; in assay [9], 6.13 µM; in [10], 3.27 µM.
On to `COc1cc2ncn(-c3cc(O[C@@H](C)c4ccccc4Cl)c(C(N)=O)s3)c2cc1OC`, for which the GI50 in assay [1] was 2.55 µM; in [2], 1.01 µM; in assay [3], 0.744 µM; in assay [4], 4.67 µM; in assay [5], 0.983 µM; in assay [6], 0.559 µM. Also, the GI50 in [7] was 1.76 µM; in assay [8], 2.3 µM; in assay [9], 2.7 µM; in assay [10] it was 1.8 µM. For the same compound, the total growth inhibition concentration (TGI) in [1], in assay [2], in assay [3], in assay [4], in assay [5] and in assay [6] was above 25 µM in each case. Besides, the TGI was above 25 µM in [7], above 19.4 µM in assay [8], above 25 µM in assay [9] and 7.09 µM in [10].
As to `COc1ccc(/C(COc2ccc3c(=O)c(-c4ccccc4)coc3c2)=N\O)cc1`, the GI50 is 3.09 µM in assay [1]; 18.3 µM in assay [2]; 8.52 µM in assay [3]; 8.83 µM in assay [4]; 0.0674 µM in assay [5]; 1.5 µM in [6]. The GI50 was 8.49 µM in assay [7], 15.2 µM in assay [8], 14.9 µM in assay [9] and 6.96 µM in assay [10]. The TGI in assay [1] is 9.15 µM; in [2], 44.6 µM; in assay [3] it was 33.7 µM; in [4] it was 47 µM; in assay [5], above 100 µM; in assay [6] it was 40.4 µM. Further, the TGI is 23.8 µM in assay [7], 89 µM in [8], above 86.7 µM in assay [9] and above 37.2 µM in assay [10].
Regarding `O=C1CC(=O)N(C(=O)c2nn(-c3ccc(Cl)cc3)cc2O)N1`, the GI50 in assay [1] is 4.17 µM; in [2], 0.34 µM; in [3], 0.5 µM; in [4], 0.508 µM; in assay [5] it was 0.292 µM; in [6] it was 1.03 µM. In addition, the GI50 in assay [7] was 0.651 µM; in assay [8], 0.724 µM; in [9] it was 0.5 µM; in assay [10], 0.431 µM. Also, the TGI in [1] is above 100 µM; in [2], above 100 µM; in assay [3], above 100 µM; in assay [4], above 100 µM; in [5], 8.15 µM; in [6] it was above 100 µM. Further, the TGI in assay [7] was 27.8 µM; in [8], above 96.6 µM; in assay [9] it was above 100 µM; in assay [10], above 71.6 µM.
Regarding `NC[C@H]1Nc2ccccc2[C@@H](O)C1O` (stereo not given in full), the TGI in [1], in assay [2], in [3], in [4], in assay [5] and in assay [6] was above 100 µM throughout. Moreover, the TGI in assay [7], in [8], in [9] and in [10] was above 100 µM each time.
Consider `C[C@]12CC[C@@H]3c4cc(-c5ccc(F)cc5)c(O)cc4CC[C@H]3[C@@H]1CC[C@@H]2O`, for which the GI50 in [1] is 16.8 µM; in [2], 5.65 µM; in assay [3] it was 11.2 µM; in assay [4], 10.6 µM; in assay [5] it was 3.06 µM; in [6] it was 6.49 µM. Moreover, the GI50 in assay [7] was 14.2 µM; in [8] it was 10.3 µM; in [9], 9.61 µM; in assay [10], 4.52 µM. Further, the TGI in [1] worked out at 38.2 µM; in assay [2], 22 µM; in assay [3], 28.3 µM; in assay [4], 23.6 µM; in [5] it was 18.3 µM; in assay [6], 20.9 µM. Also, the TGI in assay [7] worked out at 34.5 µM; in [8], 30.4 µM; in assay [9], 22.6 µM; in assay [10], 24.6 µM.
As for `O=c1cc(N2CCN(CCCCCOc3cc(O)c4c(=O)cc(-c5ccccc5)oc4c3)CC2)c2ccccc2o1`, the GI50 in assay [1] was 48.3 µM; in assay [2], 25.4 µM; in [3], above 100 µM; in [4], 26.1 µM; in [5], 15.4 µM; in [6], 77.8 µM. For the same compound, the GI50 is 53.2 µM in assay [7], 23.9 µM in [8], above 100 µM in assay [9] and above 100 µM in assay [10]. Moreover, the TGI in assay [1], in assay [2], in [3], in assay [4], in [5] and in assay [6] was above 100 µM throughout. The TGI in assay [7], in assay [8], in assay [9] and in assay [10] was above 100 µM throughout.
In the case of `Cc1nc2sc(C(=O)Nc3cccc4ccccc34)c(N)c2cc1C(O)c1ccccc1` (stereo not given), the GI50 in [1] was 0.193 µM; in assay [2], 0.0439 µM; in assay [3], 0.081 µM; in [4], 2.11 µM; in assay [5], 0.0442 µM; in assay [6], 0.044 µM. Besides, the GI50 was 0.0409 µM in assay [7], 1.19 µM in [8], 0.108 µM in [9] and 0.0527 µM in assay [10]. The TGI in [1] is 2.89 µM; in assay [2] it was 10.9 µM; in assay [3] it was 19.1 µM; in [4] it was 18.8 µM; in assay [5], above 39.6 µM; in [6] it was 1.73 µM. For the same compound, the TGI is 15 µM in assay [7], 28.4 µM in assay [8], above 66.7 µM in [9] and 88.6 µM in [10].

The values are drawn from PubChem BioAssay (NCI).
